Source: patent publication US10899758B2, “Inhibitors of the menin-MLL interaction” (Vitae Pharmaceuticals, LLC, priority 2016, dated 2021)

Key:
[1] = biological target: T1, menin/MLL binding (biotinylated wild-type or mutated menin and MLL-AF9 fusion protein) (Homo sapiens, UniProt O00255); experiment: Assay 1 (Binding Assay): AlphaLISA menin/MLL binding; conditions: 5 nM biotinylated menin, MLL-AF9-FLAG lysate
T1 construct: biotinylated (1) wild-type menin or (2) mutated menin (described in Nature (2012) Vol. 482, pp. 542-548); fused on or other part: Biotin attached chemically (Sulfo-NHS-Biotin); no fused second protein is printed for menin
T1 sequence (O00255 1-459 limits assumed): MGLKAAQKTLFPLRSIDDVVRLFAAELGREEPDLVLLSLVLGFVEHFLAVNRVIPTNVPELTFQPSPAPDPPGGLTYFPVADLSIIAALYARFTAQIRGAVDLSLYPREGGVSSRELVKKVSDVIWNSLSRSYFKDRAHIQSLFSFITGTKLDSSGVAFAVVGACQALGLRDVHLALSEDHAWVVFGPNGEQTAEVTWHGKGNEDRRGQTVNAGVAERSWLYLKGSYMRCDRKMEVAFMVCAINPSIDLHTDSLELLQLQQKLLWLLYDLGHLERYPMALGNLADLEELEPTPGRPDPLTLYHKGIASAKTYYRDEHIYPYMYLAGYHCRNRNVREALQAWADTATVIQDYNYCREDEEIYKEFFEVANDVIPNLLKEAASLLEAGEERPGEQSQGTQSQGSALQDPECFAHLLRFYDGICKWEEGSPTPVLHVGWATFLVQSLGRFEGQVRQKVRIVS
Procedure, shortened: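 Biotinylated E. coli-expressed menin (wild-type or mutant), 5 nM, incubated 30 min RT with compound and HEK293 lysate of MLL1-1,396–AF9-FLAG in pH 7.4 Tris buffer, 5% DMSO, 1 mM DTT. Anti-FLAG acceptor and streptavidin donor beads added, 60 min RT, AlphaLISA signal read. IC50 from four-parameter fit of % inhibition.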

[2] = system: human acute monocytic leukemia cell line MV-4-11; experiment: Assay 2 (Cell Proliferation Assay), ATP quantitation (CellTiter-Glo); assay type: cell-based; conditions: Homo sapiens, MV4-11, 72 h, MV-4-11 cells, read-out: Assay 2 (EC50, inhibition of cell proliferation)
Procedure, shortened: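 Cells (1.67×10^4/well, 10% FBS medium) incubated ±compound 72 h at 37 °C, 5% CO2; HL-60 served as toxicity control. ATP read by CellTiter-Glo luminescence; % inhibition scaled between DMSO and a potent menin inhibitor at ≥100×LD50.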

Structure (SMILES)	IC50 [1] [µM]	EC50 [2] [µM]
CC(C)N(C)C(=O)c1cc(F)ccc1-n1cc([C@H]2CC[C@@H](N)CC2)c2ccncc21 [Example 58, 2-(3-(cis-4-aminocyclohexyl)-1H-pyrrolo[2,3-c]pyridin-1-yl)-5-fluoro-N-isopropyl-N-methylbenzamide]	0.1 to 1	≥ 1
CC(C)N(C(=O)c1cc(F)ccc1-n1cc(C2CCCN(Cc3ccc4c(c3)[nH]c(=O)n4CCO)C2)c2ccncc21)C(C)C (centres unmarked) [Example 84, 5-fluoro-2-(3-(1-((1-(2-hydroxyethyl)-2-oxo-2,3-dihydro-1H-benzo[d]imidazol-5-yl)methyl)piperidin-3-yl)-1H-pyrrolo[2,3-c]pyridin-1-yl)-N,N-diisopropylbenzamide]	< 0.1	< 0.1
CC(C)N(C(=O)c1cc(F)ccc1-n1cc(C2CCCN(Cc3ccc4[nH]c(=O)[nH]c4c3)C2)c2ccncc21)C(C)C (centres unmarked) [Example 84A, 5-fluoro-N,N-diisopropyl-2-(3-(1-((2-oxo-2,3-dihydro-1H-benzo[d]imidazol-5-yl)methyl)piperidin-3-yl)-1H-pyrrolo[2,3-c]pyridin-1-yl)benzamide]	< 0.1	< 0.1
CC(=O)OCCn1c(=O)[nH]c2cc(CN3CCC[C@H](c4cn(-c5ccc(F)cc5C(=O)N(C)C(C)C)c5cnccc45)C3)ccc21 [Example 85, (R)-2-(5-((3-(1-(4-fluoro-2-(isopropyl(methyl)carbamoyl)phenyl)-1H-pyrrolo[2,3-c]pyridin-3-yl)piperidin-1-yl)methyl)-2-oxo-2,3-dihydro-1H-benzo[d]imidazol-1-yl)ethyl acetate]	< 0.1	< 0.1
CCCCCCCCCCCCCCCCCC(=O)OCCn1c(=O)[nH]c2cc(CN3CCC[C@H](c4cn(-c5ccc(F)cc5C(=O)N(C)C(C)C)c5cnccc45)C3)ccc21 [Example 86, (R)-2-(5-((3-(1-(4-fluoro-2-(isopropyl(methyl)carbamoyl)phenyl)-1H-pyrrolo[2,3-c]pyridin-3-yl)piperidin-1-yl)methyl)-2-oxo-2,3-dihydro-1H-benzo[d]imidazol-1-yl)ethyl stearate]	< 0.1	< 0.1
CC(C)N(C(=O)c1cc(F)ccc1-n1cc(C2CCCN(C[C@H]3CC[C@H](NS(C)(=O)=O)CC3)C2)c2ccncc21)C(C)C (some centres unmarked) [Example 87, 5-fluoro-N,N-diisopropyl-2-(3-(1-(((1r,4r)-4-(methylsulfonamido)cyclohexyl)methyl)piperidin-3-yl)-1H-pyrrolo[2,3-c]pyridin-1-yl)benzamide]	< 0.1	< 0.1
CC(C)N(C)C(=O)c1cc(F)ccc1-n1cc(C2CCCN(Cc3ccc4c(c3)NC(=O)C4(C)C#N)C2)c2ccncc21 (centres unmarked) [Example 88, 2-(3-(1-((3-cyano-3-methyl-2-oxoindolin-6-yl)methyl)piperidin-3-yl)-1H-pyrrolo[2,3-c]pyridin-1-yl)-5-fluoro-N-isopropyl-N-methylbenzamide]	< 0.1	< 0.1
CC(C)N(C)C(=O)c1cc(F)ccc1-n1cc(C2CCN(CCN3CCC(NS(C)(=O)=O)CC3)CC2)c2ccncc21 [Example 93, 5-fluoro-N-isopropyl-N-methyl-2-(3-(1-(2-(4-(methylsulfonamido)piperidin-1-yl)ethyl)piperidin-4-yl)-1H-pyrrolo[2,3-c]pyridin-1-yl)benzamide]	< 0.1	0.1 to 1
CC(C)N(C)C(=O)c1cc(F)ccc1-n1cc([C@H]2CC[C@H](N3CCC[C@H]3CO)CC2)c2ccncc21 [Example 96, 5-fluoro-2-(3-(trans-4-((S)-2-(hydroxymethyl)pyrrolidin-1-yl)cyclohexyl)-1H-pyrrolo[2,3-c]pyridin-1-yl)-N-isopropyl-N-methylbenzamide]	< 0.1	0.1 to 1
CC(C)N(C)C(=O)c1cc(F)ccc1-n1cc([C@H]2CC[C@H](N3CCC[C@@H]3CO)CC2)c2ccncc21 [Example 100, 5-fluoro-2-(3-(trans-4-((R)-2-(hydroxymethyl)pyrrolidin-1-yl)cyclohexyl)-1H-pyrrolo[2,3-c]pyridin-1-yl)-N-isopropyl-N-methylbenzamide]	< 0.1	0.1 to 1
CC(C)N(C)C(=O)c1cc(F)ccc1-n1cc([C@H]2CC[C@H](N3CC[C@H](CO)C3)CC2)c2ccncc21 [Example 104, 5-fluoro-2-(3-(trans-4-((S)-3-(hydroxymethyl)pyrrolidin-1-yl)cyclohexyl)-1H-pyrrolo[2,3-c]pyridin-1-yl)-N-isopropyl-N-methylbenzamide]	< 0.1	0.1 to 1
CC(C)N(C)C(=O)c1cc(F)ccc1-n1cc([C@H]2CC[C@H](N3CCCCC3)CC2)c2ccncc21 [Example 106, 5-fluoro-N-isopropyl-N-methyl-2-(3-(trans-4-(piperidin-1-yl)cyclohexyl)-1H-pyrrolo[2,3-c]pyridin-1-yl)benzamide]	< 0.1	0.1 to 1

Next, values leading:

IC50 [1] [µM]	EC50 [2] [µM]	Structure (SMILES)
< 0.1	< 0.1	CCN(C(=O)c1cc(F)ccc1-n1cc([C@@H]2CCCN(Cc3ccc4c(c3)[nH]c(=O)n4CCO)C2)c2ccncc21)C(C)C [Example 49A, (S)-N-ethyl-5-fluoro-2-(3-(1-((1-(2-hydroxyethyl)-2-oxo-2,3-dihydro-1H-benzo[d]imidazol-5-yl)methyl)piperidin-3-yl)-1H-pyrrolo[2,3-c]pyridin-1-yl)-N-isopropylbenzamide]
< 0.1	< 0.1	CCN(C(=O)c1cc(F)ccc1-n1cc([C@H]2CCCN(Cc3ccc4c(c3)[nH]c(=O)n4CCO)C2)c2ccncc21)C(C)C [Example 49B, (R)-N-ethyl-5-fluoro-2-(3-(1-((1-(2-hydroxyethyl)-2-oxo-2,3-dihydro-1H-benzo[d]imidazol-5-yl)methyl)piperidin-3-yl)-1H-pyrrolo[2,3-c]pyridin-1-yl)-N-isopropylbenzamide]
< 0.1	0.1 to 1	CC(C)N(C)C(=O)c1cc(F)ccc1-n1cc([C@H]2CC[C@H](N3CCCC3)CC2)c2ccncc21 [Example 55, 5-fluoro-N-isopropyl-N-methyl-2-(3-(trans-4-(pyrrolidin-1-yl)cyclohexyl)-1H-pyrrolo[2,3-c]pyridin-1-yl)benzamide]
< 0.1	0.1 to 1	CC(C)N(C)C(=O)c1cc(F)ccc1-n1cc([C@H]2CC[C@@H](N3CCCC3)CC2)c2ccncc21 [Example 56, 5-fluoro-N-isopropyl-N-methyl-2-(3-(cis-4-(pyrrolidin-1-yl)cyclohexyl)-1H-pyrrolo[2,3-c]pyridin-1-yl)benzamide]
< 0.1	≥ 1	CC(C)N(C)C(=O)c1cc(F)ccc1-n1cc([C@H]2CC[C@H](N)CC2)c2ccncc21 [Example 57, 2-(3-(trans-4-aminocyclohexyl)-1H-pyrrolo[2,3-c]pyridin-1-yl)-5-fluoro-N-isopropyl-N-methylbenzamide]
< 0.1	< 0.1	Cc1c(CN2CCC(c3cn(-c4ccc(F)cc4C(=O)N(C)C(C)C)c4cncnc34)CC2)ccc2[nH]c(C#N)cc12 [Example 63, 2-(7-(1-((2-cyano-4-methyl-1H-indol-5-yl)methyl)piperidin-4-yl)-5H-pyrrolo[3,2-d]pyrimidin-5-yl)-5-fluoro-N-isopropyl-N-methylbenzamide]
< 0.1	≥ 1	CC(C)N(C)C(=O)c1cc(F)ccc1-c1cn(C2CCCN(Cc3ccc4[nH]c(=O)[nH]c4c3)C2)c2ccncc12 (centres unmarked) [Example 74, 5-fluoro-N-isopropyl-N-methyl-2-(1-(1-((2-oxo-2,3-dihydro-1H-benzo[d]imidazol-5-yl)methyl)piperidin-3-yl)-1H-pyrrolo[3,2-c]pyridin-3-yl)benzamide]
< 0.1	0.1 to 1	CC(C)N(C)C(=O)c1cc(F)ccc1-n1c(=O)n(C2CCN(CC[C@H]3CC[C@H](NS(C)(=O)=O)CC3)CC2)c2ccncc21 [Example 78, 5-fluoro-N-isopropyl-N-methyl-2-(1-(1-(2-((1r,4r)-4-(methylsulfonamido)cyclohexyl)ethyl)piperidin-4-yl)-2-oxo-1,2-dihydro-3H-imidazo[4,5-c]pyridin-3-yl)benzamide]
< 0.1	≥ 1	Cc1c(CN2CCC(n3c(=O)n(-c4ccc(F)cc4)c4cnccc43)CC2)ccc2[nH]c(C#N)cc12 [Example 80, 5-((4-(3-(4-fluorophenyl)-2-oxo-2,3-dihydro-1H-imidazo[4,5-c]pyridin-1-yl)piperidin-1-yl)methyl)-4-methyl-1H-indole-2-carbonitrile]
< 0.1	< 0.1	Cc1c(CN2CCC(n3c(=O)n(-c4ccc(F)cc4C(=O)N(C)C(C)C)c4cnccc43)CC2)ccc2[nH]c(C#N)cc12 [Example 82, 2-(1-(1-((2-cyano-4-methyl-1H-indol-5-yl)methyl)piperidin-4-yl)-2-oxo-1,2-dihydro-3H-imidazo[4,5-c]pyridin-3-yl)-5-fluoro-N-isopropyl-N-methylbenzamide]
